Laboratory results reported in patent publication US7078022B2, “Sunscreen compositions and methods of use thereof” (Avon Products, Inc., priority 2002, dated 2006).
Counter-ions that a name gives are not always drawn.

Experiments:
skin = test: Skin elasticity and wrinkling; settings: no method or data given
[1] = UV spectrum (UV absorbance, FIG. 1); assay type: physicochemical
Excerpt: FIG. 1 is a Ultraviolet (UV) spectrum showing the UV absorbance of 3-[2-(4-diethylaminophenyl)-2-oxoethyl]thiazolium salt.
FIG. 1 provides the UV spectrum for 3-[2-(4-diethylaminophenyl)-2-oxoethyl]thiazolium salt. […] The maximum UV absorption occurs at a wavelength of 350 nm.

- wavelength of maximum UV absorption [1]: 350 nm
Structure (SMILES): CCN(CC)c1ccc(C(=O)C[n+]2ccsc2)cc1 [3-[2-(4-diethylaminophenyl)-2-oxoethyl]thiazolium salt]
- elasticity of skin (skin): improve the elasticity
- wrinkling of skin (skin): reduce the wrinkling of skin
- UV absorbing properties ([1]; UV-A range): excellent UV absorber, particularly in the UV-A range
